Laboratory results taken from US11612586B2, “Indole regulation of antigen presenting cells” (THE TEXAS A&M UNIVERSITY SYSTEM, priority 2016, dated 2023).

Columns and labels:
Format in all cases: cell-based, mouse
CCR9 [1] = test: CCR9 surface expression on BMDCs; settings: BMDCs cultured from day 3 with indole (1 mM) or retinoic acid (1 μM), day 7
Description: (§1) FIGS. 12A and 12B graphically illustrate that indole induces CCR9 and B220 on DCs. BMDCs were cultured in the presence of indole (1 mM), retinoic acid (1 μM), or DMF solvent control from day 3. On day 7, DCs were surface stained for expression of CCR9 and B220 and analyzed by flow cytometry. […] Mean of three independent experiments. * indicates p<0.05 for one-way ANOVA followed by Dunnett's post-test.
Dendritic cell subsets bear numerous surface antigens that regulate their migration and localization. Because indole is produced in the gut and appears to induce anti-inflammatory properties in DCs (as described above), it was hypothesized that indole might affect migration and retention in mucosal tissues. Thus, expression of the gut homing marker, chemokine receptor CCR9 was investigated. […] Retinoic acid (RA) was included as a positive control. RA is present in murine plasma at approximately […] and is predicted to exist at higher concentrations in tissue microenvironments in vivo. Thus, 1 uM was used as a conservative estimate of relevant physiological concentration. Indole's effect was even more profound than that of retinoic acid, a known inducer of mucosal homing markers on T cells (see, e.g., Iwata M, et al. (2004) Retinoic Acid Imprints Gut-Homing Specificity on T Cells. Immunity 21(4):527-538). […]

B220 (CD45R) = test: B220 surface expression on BMDCs; settings: BMDCs cultured from day 3 with indole (1 mM) or retinoic acid (1 μM)
Description: as §1
An indole-induced upregulation of the B220 (CD45R) antigen was also observed (FIGS. 12A and 12B), which is widely used to distinguish the plasmacytoid DC lineage and is believed to contribute to gut homing. However, more recently B220 has been reported to distinguish a DC subset more closely developmentally related to conventional rather than plasmacytoid DCs and a precursor to resident CD8+ and CD8− conventional DCs.

naïve CD4+CD25− T cells [2] = test: T cell activation in the presence of BMDC supernatant: Treg induction; settings: T cells on α-CD3/α-CD28 plates, 72 hours
Description: Specifically, naïve CD4+CD25− T cells were FACS-sorted and plated in 96-well, α-CD3 and α-CD28-coated tissue culture plates in a volume of 100 ul cell culture media. […] T cells with DC supernatant were cultured for 72 hours in the presence or absence of exogenous TGF-β. Subsequently, cells were stained for the transcription factor Foxp3 and analyzed by flow cytometry.
Naïve CD4+CD25− T cells were FACS-sorted as described above and plated in 96-well, αCD3 and αCD28-coated tissue culture plates in a volume of 100 ul cell culture media. An equal volume of spent BMDC supernatant was added, in the presence or absence of exogenous TGF-β, and T cells were cultured for 72 hours. To generate supernatants, day 3-treated BMDCs were collected on day 7, washed extensively and plated in a 48-well cell culture plate at 5×10^5 cells per well in 500 ul fresh complete media for 24 hours in the presence or absence of 1 ug/ml LPS. Plates were then centrifuged and supernatants were collected, filtered, and stored at −20° C. until use.

naïve CD4+CD25− T cells [3] = test: DC-T cell co-culture without cell contact (Transwell): Treg induction; settings: exogenous TGF-β added, 3 days
Description: Transwell tissue culture plates were used to perform co-cultures with a physical barrier between the two cell types. Naïve CD4+CD25− T cells were FACS-sorted and placed in the bottom of a 24-well Transwell cell culture plate with 0.4 uM polycarbonate membranes that had been coated with α-CD3 (5 ug/ml) and α-CD28 (2 ug/ml). TGF-β was added at the indicated concentrations. […] The T cell to DC ratio was 2:1, as in other co-culture experiments. After 3 days, T cells were stained for Foxp3 and analyzed by flow cytometry.
Naïve CD4+CD25− T cells were FACS-sorted and placed in the bottom of a 24-well Transwell cell culture plate with 0.4 uM polycarbonate membranes (Corning) that had been coated with 5 μg/mL αCD3 (BioXcell 145-2C11) and 2 μg/mL αCD28 (BioXcell 37.51). TGF-β was added at the indicated concentrations. The insert was placed in the well and washed, Day 3-treated BMDCs were added to the top chamber such that culture media was shared, but the cell types were kept physically separate. The T cell to DC ratio was 2:1, as in other co-culture experiments.

CCR9 [4] = test: CCR9 induction on naïve T cells by conditioned DCs; settings: no exogenous RA in the co-culture
Description: FIG. 18 graphically illustrates that indole-conditioned DCs induce CCR9 on naïve T cells upon activation. Naïve CD4+CD25− T cells from OT-II mice were co-cultured with OVA323-339 peptide-loaded BMDCs for 72 hours in the presence of RA as indicated. BMDCs were previously treated with indole, RA, or DMF from day 3. Following 3 days of co-culture, surface staining was performed for flow cytometric analysis.
Based on the observation that indole induces gut homing markers on developing DCs, it was queried whether indole-conditioned DCs could also confer gut homing markers upon naïve CD4+ T cells. The antigen-specific T cell activation model was used to address this question, and a titration of RA was included as a positive control to induce CCR9. […] Just 10 nM of RA enabled indole-DC co-cultures to achieve over 50% of T cells expressing CCR9 which was similar to RA-DC positive controls, whereas DMF-DC co-cultures with the same concentration of RA added achieved only 10% of CCR9+ T cells.
Naïve CD4+CD25− T cells of spleen and lymph nodes from OT-II mice were isolated by negative selection via column purification using the Naïve CD4+ T Cell Isolation Kit (Miltenyi Biotec). Naïve CD4+ T cells (>96% pure) were labeled with Cell Proliferation Dye efluor450 (eBioscience) following manufacturer's instructions then co-cultured with OVA peptide-loaded BMDCs at a ratio of 2:1 for 72 hours in a 96-well round-bottom tissue culture plate. BMDCs were previously treated with indole or RA from day 3. On day 7, DCs were washed extensively prior to being loaded with OVA323-339 peptide (10 ug/ml) for 1 hour at 37° C. BMDCs were then washed three times and plated with naïve CD4+ T cells. RA or TGFβ were added to co-cultures as indicated. Following 3 days of culture, cells were stained with antibodies to CD4, CCR9, and LPAM-1 (α4β7). Intracellular staining for Foxp3 was performed using a Foxp3 staining kit (eBioscience). The remaining CD4+ helper T cell lineages Th1, Th2, and Th17 were identified by their cytokine production. […]

For `CC1=C(/C=C/C(C)=C/C=C/C(C)=C/C(=O)O)C(C)(C)CCC1` [RA, all-trans retinoic acid, reference compound], the “surface expression of CCR9 on conditioned DCs” value (CCR9 [1]) was 22%, the “B220 (CD45R) expression on BMDCs” value (B220 (CD45R)) was “does not induce B220” and the “Treg induction by supernatant of conditioned BMDCs relative to solvent control DCs” value (naïve CD4+CD25− T cells [2]) was “approximately 2 fold”. The “Treg induction by conditioned DCs without cell contact over solvent controls” value (naïve CD4+CD25− T cells [3]) was 3 fold and the “induction of CCR9 on naïve T cells by conditioned BMDCs alone” value (CCR9 [4]) was “sufficient”.
